Measurements from US20070167492A1, “Molluscicidal agents” (priority 2003, published 2007).

Assays:
[1] = tested on: Deroceras reticulatum (grey field slug); test: Example 1: pot test, treated winter wheat seed with 5 adult slugs per pot, 14 days; format: in vivo
Method in brief: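 Fludioxonil-disinfected winter wheat seed (Kampa, 40 per pot) sown on quartz sand over potting soil with 5 adult slugs per pot; ±15° C., ±90% RH, 12 h light/12 h dark, 4 replicates. Damaged seeds, plants, dead slugs and fecal pellets counted up to day 14; F-tests and Student-tests.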

[2] = tested on: Winter wheat (Kampa race) seeds; test: Seed germination test of treated winter wheat seeds (rolled in paper); format: in vivo; conditions: 3x50 seeds, 6 days at 22° C.
Method in brief: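 Seeds were disinfected with fludioxonil-containing Beret Gold (2 ml per kg seed) and coated with Sepiret® for formulations unsuitable for coating. Germination of 3×50 seeds rolled in paper was scored after 6 days at continuous 22° C. under a 16 hours light regime.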

[3] = 2 ml formulated per kg seed, 2 days after sowing
[4] = 2 ml formulated per kg seed, 3 days after sowing
[5] = 2 ml formulated per kg seed, 7 days after sowing
[6] = 2 ml formulated per kg seed, 10 days after sowing
[7] = 2 ml formulated per kg seed, 14 days after sowing
[8] = 4 ml formulated per kg seed, 2 days after sowing
[9] = 4 ml formulated per kg seed, 3 days after sowing
[10] = 4 ml formulated per kg seed, 7 days after sowing
[11] = 4 ml formulated per kg seed, 10 days after sowing
[12] = 4 ml formulated per kg seed, 14 days after sowing
[13] = 8 ml formulated per kg seed, 2 days after sowing
[14] = 8 ml formulated per kg seed, 3 days after sowing
[15] = 8 ml formulated per kg seed, 7 days after sowing
[16] = 8 ml formulated per kg seed, 10 days after sowing
[17] = 8 ml formulated per kg seed, 14 days after sowing
[18] = 12 ml formulated per kg seed, 2 days after sowing
[19] = 12 ml formulated per kg seed, 3 days after sowing
[20] = 12 ml formulated per kg seed, 7 days after sowing
[21] = 12 ml formulated per kg seed, 10 days after sowing
[22] = 12 ml formulated per kg seed, 14 days after sowing

`O=[N+]([O-])NC1=NCCN1Cc1ccc(Cl)nc1` [imidacloprid] was tested, and the “number of utilizable plants after 14 days” value (from here on “number of utilizable plants”) ([1]; 2 ml formulated per kg seed) was 2.5, the “percentage of damaged seeds after 14 days” value (“percentage of damaged seeds” for short) ([1]; 2 ml formulated per kg seed) was 86% and the “Mean number of damaged seeds per pot” value [1, 3] was 2.8. For the same compound, the “Mean number of dead slugs per pot” value [1, 3] was 0, the “Mean number fecal pellets per pot” value [1, 4] was 33 and the “Mean number of damaged seeds per pot” value [1, 4] was 10.3. For the same compound, the “Mean number of dead slugs per pot” value [1, 4] was 0, the “Mean number of plants present per pot” value [1, 4] was 3.8 and the “Mean number fecal pellets per pot” value [1, 5] was 118. For the same compound, the “Mean number of damaged seeds per pot” value [1, 5] was 33.0, the “Mean number of dead slugs per pot” value [1, 5] was 0 and the “Mean number of plants present per pot” value [1, 5] was 2.8. For the same compound, the “Mean number fecal pellets per pot” value [1, 6] was 109, the “Mean number of damaged seeds per pot” value [1, 6] was 33.5 and the “Mean number of dead slugs per pot” value [1, 6] was 0.3. The “Mean number of plants present per pot” value [1, 6] was 4.5, the “Mean number fecal pellets per pot” value [1, 7] was 116 and the “Mean number of damaged seeds per pot” value [1, 7] was 34.3. For the same compound, the “Mean number of dead slugs per pot” value [1, 7] was 0.5, the “Mean number of plants present per pot” value [1, 7] was 3.3 and the “number of utilizable plants” value ([1]; 4 ml formulated per kg seed) was 0.8. For the same compound, the “percentage of damaged seeds” value ([1]; 4 ml formulated per kg seed) was 81%, the “Mean number of damaged seeds per pot” value [1, 8] was 1.0 and the “Mean number of dead slugs per pot” value [1, 8] was 0. For the same compound, the “Mean number fecal pellets per pot” value [1, 9] was 21, the “Mean number of damaged seeds per pot” value [1, 9] was 7.3 and the “Mean number of dead slugs per pot” value [1, 9] was 0.3. For the same compound, the “Mean number of plants present per pot” value [1, 9] was 2.3, the “Mean number fecal pellets per pot” value [1, 10] was 108 and the “Mean number of damaged seeds per pot” value [1, 10] was 32.8. The “Mean number of dead slugs per pot” value [1, 10] was 0.3, the “Mean number of plants present per pot” value [1, 10] was 1.3 and the “Mean number fecal pellets per pot” value [1, 11] was 118. The “Mean number of damaged seeds per pot” value [1, 11] was 31.5, the “Mean number of dead slugs per pot” value [1, 11] was 0.3 and the “Mean number of plants present per pot” value [1, 11] was 4.0. For the same compound, the “Mean number fecal pellets per pot” value [1, 12] was 126, the “Mean number of damaged seeds per pot” value [1, 12] was 32.3 and the “Mean number of dead slugs per pot” value [1, 12] was 0.3. The “Mean number of plants present per pot” value [1, 12] was 3.5, the “number of utilizable plants” value ([1]; 8 ml formulated per kg seed) was 7.3 and the “percentage of damaged seeds” value ([1]; 8 ml formulated per kg seed) was 59%. For the same compound, the “Mean number of damaged seeds per pot” value [1, 13] was 1.3, the “Mean number of dead slugs per pot” value [1, 13] was 0 and the “Mean number fecal pellets per pot” value [1, 14] was 11. The “Mean number of damaged seeds per pot” value [1, 14] was 4.5, the “Mean number of dead slugs per pot” value [1, 14] was 0 and the “Mean number of plants present per pot” value [1, 14] was 13.8. For the same compound, the “Mean number fecal pellets per pot” value [1, 15] was 48, the “Mean number of damaged seeds per pot” value [1, 15] was 23.8 and the “Mean number of dead slugs per pot” value [1, 15] was 0. For the same compound, the “Mean number of plants present per pot” value [1, 15] was 9.0, the “Mean number fecal pellets per pot” value [1, 16] was 65 and the “Mean number of damaged seeds per pot” value [1, 16] was 23.5. The “Mean number of dead slugs per pot” value [1, 16] was 0.3, the “Mean number of plants present per pot” value [1, 16] was 9.5 and the “Mean number fecal pellets per pot” value [1, 17] was 75. The “Mean number of damaged seeds per pot” value [1, 17] was 23.8, the “Mean number of dead slugs per pot” value [1, 17] was 0.5 and the “Mean number of plants present per pot” value [1, 17] was 10.5. For the same compound, the “number of utilizable plants” value ([1]; 12 ml formulated per kg seed) was 14.3, the “percentage of damaged seeds” value ([1]; 12 ml formulated per kg seed) was 22% and the “Mean number of damaged seeds per pot” value [1, 18] was 0.0. The “Mean number of dead slugs per pot” value [1, 18] was 0, the “Mean number fecal pellets per pot” value [1, 19] was 9 and the “Mean number of damaged seeds per pot” value [1, 19] was 4.3. For the same compound, the “Mean number of dead slugs per pot” value [1, 19] was 1.5, the “Mean number of plants present per pot” value [1, 19] was 11.8 and the “Mean number fecal pellets per pot” value [1, 20] was 26. For the same compound, the “Mean number of damaged seeds per pot” value [1, 20] was 11.5, the “Mean number of dead slugs per pot” value [1, 20] was 1.5 and the “Mean number of plants present per pot” value [1, 20] was 16.3. The “Mean number fecal pellets per pot” value [1, 21] was 35, the “Mean number of damaged seeds per pot” value [1, 21] was 7.8 and the “Mean number of dead slugs per pot” value [1, 21] was 1.5. The “Mean number of plants present per pot” value [1, 21] was 19.0, the “Mean number fecal pellets per pot” value [1, 22] was 38 and the “Mean number of damaged seeds per pot” value [1, 22] was 8.8. The “Mean number of dead slugs per pot” value [1, 22] was 1.5, the “Mean number of plants present per pot” value [1, 22] was 20 and the “damaged seeds relative to untreated seed” value ([1]; Example 1, 2 ml/kg) was “no controlling effect”. For the same compound, the “damaged seeds relative to untreated seed” value ([1]; Example 1, 4 ml/kg) was “controlling effect only after 2 and 3 days”, the “damaged seeds relative to untreated seed” value ([1]; Example 1, 8 ml/kg, after 3, 7 and 14 days) was “significant controlling effect” and the “damaged seeds relative to the untreated pots” value ([1]; Example 1, 12 ml per kg of seed, at each observation) was “significantly less damaged seeds”. For the same compound, the “fecal pellets relative to the untreated seed” value ([1]; Example 1, 12 ml per kg of seed, each observation) was “significantly less fecal pellets”, the “dead slugs relative to the untreated seed” value ([1]; Example 1, 12 ml/kg, 3 and 7 days after the start) was “significantly more dead slugs” and the “plants present relative to the untreated seed” value ([1]; Example 1, 12 ml/kg, at each observation) was “significantly more plants present”. The “slug controlling effect (conclusion)” value ([1]; Example 1, dosage of 12 ml per kg of seed) was “good slug controlling agent”, the Percentage germinated ([2]; 2 ml formulated per kg seed) was 78% and the Percentage germinated ([2]; 4 ml formulated per kg seed) was 89%. It also gave a Percentage germinated ([2]; 8 ml formulated per kg seed) of 71% and a Percentage germinated ([2]; 12 ml formulated per kg seed) of 77%.
